The text below walks through data of ChEMBL document CHEMBL1201862, “PubChem BioAssay data set” (2004).

Assay [1] in a line: cells. In kind it is functional, cell-based.
Assay [2] in a line: cells. In kind it is functional, cell-based. This is another data set of the same source.
The target in assay [3] is T1, Trace amine-associated receptor 1 (Homo sapiens, UniProt Q96RJ0).
T1 sequence (Q96RJ0 whole entry): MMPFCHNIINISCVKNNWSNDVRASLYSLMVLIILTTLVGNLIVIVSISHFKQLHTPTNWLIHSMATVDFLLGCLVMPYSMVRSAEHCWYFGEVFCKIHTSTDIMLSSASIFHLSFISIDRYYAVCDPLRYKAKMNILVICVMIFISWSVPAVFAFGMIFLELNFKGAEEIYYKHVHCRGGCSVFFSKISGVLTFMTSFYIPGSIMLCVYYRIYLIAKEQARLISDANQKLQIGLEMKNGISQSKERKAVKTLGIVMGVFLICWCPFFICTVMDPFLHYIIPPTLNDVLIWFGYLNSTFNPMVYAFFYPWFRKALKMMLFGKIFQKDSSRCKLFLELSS
Description: Fluorescence-based cell-based high throughput dose response assay to identify agonists of the human trace amine associated receptor 1 (TAAR1). In kind it is functional.

Assay [4] addresses T1, Trace amine-associated receptor 1. Description: Counterscreen for agonists of the human trace amine associated receptor 1 (hTAAR1): Fluorescence-based cell-based high throughput dose response assay to identify hTAAR1 agonist that also desensitize TAAR1 receptor response. In kind it is functional. (Counterscreens check selectivity or assay interference.)
Assay [5] deals with T2, Leucine aminopeptidase (Plasmodium falciparum 3D7, UniProt Q8IL11).
T2 sequence (Q8IL11 whole entry): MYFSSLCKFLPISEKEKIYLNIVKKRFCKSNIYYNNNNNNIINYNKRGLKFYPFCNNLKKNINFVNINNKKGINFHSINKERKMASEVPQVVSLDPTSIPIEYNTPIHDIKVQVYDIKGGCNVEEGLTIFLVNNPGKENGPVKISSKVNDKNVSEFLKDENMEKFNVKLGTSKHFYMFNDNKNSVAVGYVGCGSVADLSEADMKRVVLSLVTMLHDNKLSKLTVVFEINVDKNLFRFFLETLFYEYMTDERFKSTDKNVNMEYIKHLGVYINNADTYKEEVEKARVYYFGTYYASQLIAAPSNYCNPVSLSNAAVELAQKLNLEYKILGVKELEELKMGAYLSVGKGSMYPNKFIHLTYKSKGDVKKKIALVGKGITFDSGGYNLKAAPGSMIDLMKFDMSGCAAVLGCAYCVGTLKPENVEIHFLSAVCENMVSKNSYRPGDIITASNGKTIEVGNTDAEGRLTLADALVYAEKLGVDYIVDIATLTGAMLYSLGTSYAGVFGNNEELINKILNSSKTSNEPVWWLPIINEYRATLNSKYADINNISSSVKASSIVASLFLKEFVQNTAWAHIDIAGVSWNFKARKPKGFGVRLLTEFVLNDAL
Description: P. falciparum M17LAP inhibitors, primary screen, biochemical, fluorogenic H-Leu-NHMec substrate, 1536-well (AID 1619). In kind it is functional.

The subject of assay [6] is P388/ADR. Description: cells. In kind it is functional. The note with it: Mus musculus.
In assay [7] the test system is P388. Put plainly: cells. In kind it is functional. The note with it: Mus musculus.
Assay [8] has as its system SN12K1. Put plainly: cells. In kind it is functional. The settings on record: Homo sapiens.
Assay [9] concerns the target Prothrombin (Homo sapiens, UniProt P00734). Description: Thrombin 1536 HTS Dose Response Confirmation. [Related pubchem assays: 1046 (Thrombin 1536 HTS; hits were confirmed in this assay)]. In kind it is functional.
The nature of assay [10]: Luminescence Cell-Based Dose Confirmation HTS to Identify Activators of 5'UTR Stem-Loop Driven Alpha-Synuclein mRNA Translation in H4 Neuroglioblastoma Cells. [Related pubchem assays: 1829 (Project Summary), 1814 (Primary HTS)]. In kind it is functional.
Assay [11] deals with H4. Description: Luminescence Cell-Based Dose Response HTS to Identify Activators of 5'UTR Stem-Loop Driven Prion Protein mRNA Translation in H4 Neuroglioblastoma Cells. [Related pubchem assays: 1829 (Project Summary), 1814 (Primary HTS)]. In kind it is functional. The note with it: Homo sapiens.
Assay [12] in a line: Luminescence Cell-Based Dose Response HTS to Identify Activators of Luciferase Translation or Activity in H4 […] Cells. [Related pubchem assays: 1829 (Project Summary), 1814 (Primary HTS)]. In kind it is functional.
Assay [13] in a line: P. falciparum Dd2 growth inhibitors, dose response, SYBR Green, cherry-picked samples (AID 1159567). In kind it is functional, cell-based.
The target in assay [14] is Luciferin 4-monooxygenase (Photinus pyralis, UniProt P08659). Description: inhibition of purified Photinus pyralis luciferase – biochemical, luminescence, dose response (AID 1891).
Assay [15] can be described thus: Luminescence Cell-Based Dose Confirmation HTS to Identify Inhibitors of Platelet Dense Granule Release. [Related pubchem assays: 1663 (Primary HTS), 1678 (Summary of Project)]. In kind it is functional.
Assay [16] concerns the target T3, Microphthalmia-associated transcription factor (Homo sapiens, UniProt O75030).
T3 sequence (O75030 whole entry): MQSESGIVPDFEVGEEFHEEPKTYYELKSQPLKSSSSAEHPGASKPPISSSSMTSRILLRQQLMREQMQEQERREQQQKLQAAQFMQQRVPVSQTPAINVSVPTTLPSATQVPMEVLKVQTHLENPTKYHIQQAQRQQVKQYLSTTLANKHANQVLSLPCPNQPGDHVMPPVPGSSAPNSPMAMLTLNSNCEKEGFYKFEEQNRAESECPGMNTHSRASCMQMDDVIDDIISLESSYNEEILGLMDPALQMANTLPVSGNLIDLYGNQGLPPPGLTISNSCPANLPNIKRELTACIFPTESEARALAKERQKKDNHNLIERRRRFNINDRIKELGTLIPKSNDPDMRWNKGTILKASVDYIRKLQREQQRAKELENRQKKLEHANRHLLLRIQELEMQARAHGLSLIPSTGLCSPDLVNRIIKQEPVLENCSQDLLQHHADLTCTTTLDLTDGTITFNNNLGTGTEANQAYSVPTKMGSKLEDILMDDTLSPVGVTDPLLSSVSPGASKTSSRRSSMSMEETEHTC
Description: reducers of TRPM1 reporter luminescence, concentration series – cell-based, SK-MEL-5, cherry-picked, set 3, MITF inhibitor project, dose response (AID 493073).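 Also: SK-MEL-5 melanoma cells with luciferase driven by the MITF target TRPM1 promoter.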 In kind it is functional.

The target in assay [17] is T4, Heat shock factor protein 1 (Mus musculus, UniProt P38532).
T4 sequence (P38532 whole entry): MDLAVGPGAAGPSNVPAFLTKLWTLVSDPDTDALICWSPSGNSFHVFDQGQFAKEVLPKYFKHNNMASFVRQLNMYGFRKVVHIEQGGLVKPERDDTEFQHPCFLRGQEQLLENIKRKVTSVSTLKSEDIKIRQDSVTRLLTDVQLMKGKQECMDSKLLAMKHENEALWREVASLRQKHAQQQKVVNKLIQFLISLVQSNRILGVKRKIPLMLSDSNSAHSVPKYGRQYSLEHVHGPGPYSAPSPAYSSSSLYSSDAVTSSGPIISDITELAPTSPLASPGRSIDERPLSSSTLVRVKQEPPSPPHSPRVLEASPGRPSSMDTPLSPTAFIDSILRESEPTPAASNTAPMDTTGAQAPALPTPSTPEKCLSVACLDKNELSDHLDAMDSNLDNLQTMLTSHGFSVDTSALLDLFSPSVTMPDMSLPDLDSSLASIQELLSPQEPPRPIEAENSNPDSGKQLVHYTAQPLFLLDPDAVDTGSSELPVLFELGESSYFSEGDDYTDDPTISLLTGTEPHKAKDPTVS
Description: decrease of HSF1-responsive luciferase luminescence – cell-based, NIH3T3, dose retest, confirmation (AID 2382).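 Also: NIH3T3 fibroblasts with HSF1-driven luciferase reporter stressed by proteasome inhibitor MG132; luminescence from HSF1-driven luciferase expression after 8 hours of MG132 stress.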 In kind it is functional.

Activity calls are given as the source filed them.

Chain of Luciferin 4-monooxygenase (P08659 whole entry): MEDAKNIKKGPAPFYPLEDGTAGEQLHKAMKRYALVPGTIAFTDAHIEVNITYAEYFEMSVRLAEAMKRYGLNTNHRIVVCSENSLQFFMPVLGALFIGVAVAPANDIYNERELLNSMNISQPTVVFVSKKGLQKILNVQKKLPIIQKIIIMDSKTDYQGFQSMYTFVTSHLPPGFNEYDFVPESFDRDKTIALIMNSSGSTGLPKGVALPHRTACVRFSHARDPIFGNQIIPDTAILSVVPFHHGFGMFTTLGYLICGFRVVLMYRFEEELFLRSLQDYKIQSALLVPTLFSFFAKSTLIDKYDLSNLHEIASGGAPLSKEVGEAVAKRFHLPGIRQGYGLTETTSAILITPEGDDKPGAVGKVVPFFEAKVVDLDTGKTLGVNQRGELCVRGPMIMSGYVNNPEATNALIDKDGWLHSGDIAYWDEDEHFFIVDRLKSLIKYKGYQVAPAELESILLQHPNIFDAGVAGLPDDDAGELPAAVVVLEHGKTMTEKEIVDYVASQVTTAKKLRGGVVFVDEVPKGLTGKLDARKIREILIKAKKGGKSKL

Regarding `CCNC1=NN=C(c2cc(C)n(CCc3ccccc3)c2C)CS1`, the EC50 is > 29.9 µM (inactive) in assay [1] and 0.373 µM (active) in assay [3]. In addition, the figures for the IC50 in [2] and in assay [4] were > 29.9 µM (inactive) and 1.06 µM (active), respectively.

As for `CCN(CC)S(=O)(=O)N1CCC(C(=O)NCC2COc3ccccc3O2)CC1` (stereo not drawn), in [5], the IC50 was 11.3 µM (active).

Take `O=C(N[C@H](C(=O)N1CCC[C@H]1C(=O)NCCc1ccccc1Cl)C1CCCCC1)c1ccccc1`: the EC50 in assay [1] is > 29.9 µM (inactive); in [3], 5.2 µM (active). Besides, the IC50 is > 29.9 µM (inactive) in [2] and 5.04 µM (active) in assay [4].

For the compound `CC1=C(C)C(=O)C(CCCCC#CCCCC#CCO)=C(C)C1=O` [DOCEBENONE], the IC50 in assay [5] is 53.4 µM (active).

Take `O=NN1C(c2ccccc2)C2CCCC(C2=O)C1c1ccccc1` (stereo not drawn): the GI50 in [6] was 22.5 µM (inactive); in assay [7] it was 36.3 µM (inactive); in [8], 26.5 µM (inactive).

`CC[C@@H](C)[C@H]([C@H](CC(=O)N1CCC[C@@H]1[C@@H](OC)[C@H](C)C(=O)N[C@H](Cc1ccccc1)c1nccs1)OC)N(C)C(=O)[C@H](NC(=O)[C@@H](C(C)C)N(C)C)C(C)C`: the GI50 in [6] and in assay [7] was 0.000425 µM (active) in each case.

Turning to `Oc1nncc(N/N=C/c2ccccc2)c1Cl`, the figures for the EC50 in assay [1] and in assay [3] were > 29.9 µM (inactive) and 0.29 µM (active), respectively. For the same compound, the results for the IC50 in assay [2] and in assay [4] were > 29.9 µM (inactive) and 0.981 µM (active), respectively.

Take `CCC(=O)NC(=S)Nc1cccc(NC(=O)c2ccccc2)c1`: the IC50 in assay [9] is on record as > 50 µM (not active).

On to `COC(=O)[C@@]12C[C@@H](CC(=O)NCCc3ccccc3OC)C(=O)N(Cc3ccc4c(c3)OCO4)C1=CCC(C)(C)C2`, for which the EC50 was > 29.9 µM (inactive) in assay [1] and 2.4 µM (active) in assay [3]. Besides, the IC50 in [2] is > 29.9 µM (inactive); in assay [4] it was 6.93 µM (active).

`O=[N+]([O-])c1ccc(/C=C/c2ccc(/N=N/c3ccc(/C=C/c4ccc([N+](=O)[O-])cc4S(=O)(=O)O)c(S(=O)(=O)O)c3)cc2S(=O)(=O)O)c(S(=O)(=O)O)c1`: the GI50 in [6], in assay [7] and in assay [8] was > 100 µM (inactive) in each case.

`O=C(c1ccco1)n1nc(-c2ccccc2)nc1SCc1ccccc1`: the IC50 in [9] is 0.695 µM (active). The EC50 is > 120 µM (not active) in assay [10], 19.6 µM (active) in assay [11] and 40.1 µM (active) in assay [12].

Turning to `CCS(=O)(=O)N1CC(=O)N2[C@H](CO)[C@@H](c3ccc(-c4ccccc4F)cc3)[C@@H]2C1`, the AC50 in assay [13] is 13.6 µM (active).

`Clc1ccc(-c2nc3cc[nH]cc-3n2)cc1`: the EC50 is > 29.9 µM (inactive) in assay [1], > 29.9 µM (inactive) in assay [3], 1 µM (active) in assay [14] and 10 µM (active) in [15]. Further, the IC50 in assay [2] and in assay [4] was > 29.9 µM (inactive) throughout.

Turning to `CC(C)(C)NC(=O)c1cc([N+](=O)[O-])ccc1N1CCCCC1`, the IC50 in assay [9] is listed as > 50 µM (not active).

Take `COC1/C=C/O[C@@]2(C)Oc3c(C)c(O)c4c(O)c(cc(O)c4c3C2=O)NC(=O)/C(C)=C\C=C\[C@H](C)C(O)[C@@H](C)[C@@H](O)[C@@H](C)[C@H](OC(C)=O)[C@@H]1C` (stereo partly drawn): the GI50 in [6] was 10.9 µM (inactive); in [7], 5.41 µM (inactive); in assay [8], 15.2 µM (inactive).

Take `Cc1ccc(NC(=O)CSCc2nc(O)c3nnn(Cc4ccc(F)cc4)c3n2)c(C)c1`: the IC50 in [5] was 2.06 µM (active).

With `CCOc1ccccc1C(=O)Nc1nnc(SCC(=O)N2CCOCC2)s1`, in [9], the IC50 is > 50 µM (not active).

Turning to `NCCN1C(=O)S/C(=C\c2ccc3c(c2)OCO3)C1=O`, the AC50 in assay [16] is 22.3 µM (active). Further, in [17], the EC50 was 1.48 µM (active).

`CSc1nc2c(ncn2C2OC(CO)C(O)C(O)C2O)c(=O)n1C` (stereo not drawn): the GI50 was > 10 µM (inactive) in [6], > 100 µM (inactive) in [7] and > 100 µM (inactive) in assay [8].

Consider `CCCCCCCCCCCCCCCCCCOCC(COP(=O)([O-])OCC[N+](C)(C)C)OC` (stereo not drawn) [EDELFOSINE], for which the GI50 in assay [6] was 4.07 µM (inactive); in [7], 2.65 µM (inactive); in assay [8] it was 11.2 µM (inactive).

As to `COc1ccc(CN2C[C@@H](C)[C@@H](OC)CN(C)C(=O)c3cc(NC(=O)c4nc5ccccc5s4)ccc3OC[C@H]2C)cc1`, the AC50 in [13] is 6.65 µM (active).

On to `CCOC(=O)N[C@H](C(=O)N1CCC[C@H]1C(=O)NCCc1ccccc1Cl)C1CCCCC1`, for which the EC50 was > 29.9 µM (inactive) in [1] and 1.91 µM (active) in assay [3]. Moreover, the values for the IC50 in [2] and in [4] were > 29.9 µM (inactive) and 2.33 µM (active), respectively.

`COc1ccc2c3c([nH]c2c1)[C@H](CO)N(Cc1ccccc1)CC31CCN(CC2CC2)CC1`: the AC50 in assay [13] is 2.62 µM (active).

One may read the EC50 as the concentration that produces a half-maximal response. Broadly, the IC50 is the concentration at which inhibition is half-maximal. In general, GI50 refers to the concentration that inhibits growth by half. One may read the AC50 as the midpoint of the concentration-response curve, whichever way the signal moves.
